Experimental data reported in patent publication US20250228239A1, “MOLECULES HAVING PESTICIDAL UTILITY, AND INTERMEDIATES, COMPOSITIONS, AND PROCESSES, RELATED THERETO” (priority 2024, published 2025).

Tests used:
[1] = system: Cabbage Looper (Trichoplusia ni, TRIPNI); test: Bioassays on Cabbage Looper (CL), 128-well diet tray assay; format: in vivo; conditions: Trichoplusia ni; Table ABC: Biological Results; species CL; read-out: CL
Summary of the method: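 Test molecule was dissolved in 90:10 acetone-water, applied to artificial diet at 50 μg/cm^2 and allowed to dry. Second-instar larvae were then added, one to five per well, and trays held at 25° C for five to seven days before mortality was scored and averaged.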

[2] = system: Beet Armyworm (Spodoptera exigua, LAPHEG); test: Bioassays on Beet Armyworm (BAW), 128-well diet tray assay; format: in vivo; conditions: Spodoptera exigua; Table ABC: Biological Results; species BAW; read-out: BAW
Summary of the method: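 Eight diet wells per compound were treated at 50 μg/cm^2 (acetone-water 90:10), dried, then infested with 1–5 second-instar larvae each. After five to seven days at 25 °C under 14:10 photoperiod, mortality was scored and averaged across wells.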

O=C(Nc1c(F)ccc(NC(=O)c2cc(NC(=O)[C@H]3[C@H](c4ccc(F)c(C(F)(F)F)c4)C3(Cl)Cl)ccc2Cl)c1F)c1ccc(F)nc1 [F1258, N-(3-(2-Chloro-5-((1R,3R)-2,2-dichloro-3-(4-fluoro-3-(trifluoromethyl)phenyl)cyclopropane-1-carboxamido)benzamido)-2,6-difluorophenyl)-6-fluoronicotinamide]
pest or weed control at 50 µg/cm2 [1]: 50 to 100% | pest or weed control at 50 µg/cm2 [2]: 50 to 100%

O=C(Nc1ccc(F)c(NC(=O)C(F)F)c1F)c1cc(NC(=O)[C@H]2[C@H](c3cc(Cl)cc(Cl)c3)C2(Cl)Cl)ccc1Cl [F1268, 2-Chloro-5-((1R,3R)-2,2-dichloro-3-(3,5-dichlorophenyl)cyclopropane-1-carboxamido)-N-(3-(2,2-difluoroacetamido)-2,4-difluorophenyl)benzamide]
pest or weed control at 50 µg/cm2 [1]: 50 to 100% | pest or weed control at 50 µg/cm2 [2]: 50 to 100%

O=C(Nc1ccc(F)c(NC(=O)C(F)F)c1F)c1cc(NC(=O)[C@H]2[C@H](c3cc(Cl)c(Cl)c(Cl)c3)C2(Cl)Cl)ccc1Cl [F1269, 2-Chloro-5-((1R,3R)-2,2-dichloro-3-(3,4,5-trichlorophenyl)cyclopropane-1-carboxamido)-N-(3-(2,2-difluoroacetamido)-2,4-difluorophenyl)benzamide]
pest or weed control at 50 µg/cm2 [1]: 50 to 100% | pest or weed control at 50 µg/cm2 [2]: 50 to 100%

O=C(Nc1c(F)cc(NC(=O)C(Cl)Cl)cc1F)c1cc(NC(=O)[C@H]2[C@H](c3ccc(Cl)c(Cl)c3)C2(Cl)Cl)ccc1Cl [F1272, 2-Chloro-5-((1R,3R)-2,2-dichloro-3-(3,4-dichlorophenyl)cyclopropane-1-carboxamido)-N-(4-(2,2-dichloroacetamido)-2,6-difluorophenyl)benzamide]
pest or weed control at 50 µg/cm2 [1]: 50 to 100% | pest or weed control at 50 µg/cm2 [2]: 50 to 100%

CC(C)(C)C(=O)Nc1c(F)ccc(NC(=O)c2cc(NC(=O)[C@H]3[C@H](c4ccc(F)c(C(F)(F)F)c4)C3(Cl)Cl)ccc2Cl)c1F [F1274, 2-Chloro-5-((1R,3R)-2,2-dichloro-3-(4-fluoro-3-(trifluoromethyl)phenyl)cyclopropane-1-carboxamido)-N-(2,4-difluoro-3-pivalamidophenyl)benzamide]
pest or weed control at 50 µg/cm2 [1]: 50 to 100% | pest or weed control at 50 µg/cm2 [2]: 50 to 100%

Nc1c(F)ccc(NC(=O)c2cc(NC(=O)[C@H]3[C@H](c4ccc(Cl)c(Cl)c4)C3(Cl)Cl)cc(F)c2Cl)c1F [F1284, N-(3-Amino-2,4-difluorophenyl)-2-chloro-5-((1R,3R)-2,2-dichloro-3-(3,4-dichlorophenyl)cyclopropane-1-carboxamido)-3-fluorobenzamide]
pest or weed control at 50 µg/cm2 [1]: 50 to 100% | pest or weed control at 50 µg/cm2 [2]: 50 to 100%

Nc1c(F)ccc(NC(=O)c2cc(NC(=O)[C@H]3[C@H](c4ccc(F)c(C(F)(F)F)c4)C3(Cl)Cl)cc(F)c2Cl)c1F [F1285, N-(3-Amino-2,4-difluorophenyl)-2-chloro-5-((1R,3R)-2,2-dichloro-3-(4-fluoro-3-(trifluoromethyl)phenyl)cyclopropane-1-carboxamido)-3-fluorobenzamide]
pest or weed control at 50 µg/cm2 [1]: 50 to 100% | pest or weed control at 50 µg/cm2 [2]: 50 to 100%

O=C(Nc1ccc(F)c(NC(=O)C(F)F)c1F)c1cc(NC(=O)[C@H]2[C@H](c3ccc(Cl)c(Cl)c3)C2(Cl)Cl)cc(F)c1Cl [F1287, 2-Chloro-5-((1R,3R)-2,2-dichloro-3-(3,4-dichlorophenyl)cyclopropane-1-carboxamido)-N-(3-(2,2-difluoroacetamido)-2,4-difluorophenyl)-3-fluorobenzamide]
pest or weed control at 50 µg/cm2 [1]: 50 to 100% | pest or weed control at 50 µg/cm2 [2]: 50 to 100%

O=C(Nc1ccc(F)c(NC(=O)C(F)(F)F)c1F)c1cc(NC(=O)[C@H]2[C@H](c3ccc(Cl)c(Cl)c3)C2(Cl)Cl)cc(F)c1Cl [F1288, 2-Chloro-5-((1R,3R)-2,2-dichloro-3-(3,4-dichlorophenyl)cyclopropane-1-carboxamido)-N-(2,4-difluoro-3-(2,2,2-trifluoroacetamido)phenyl)-3-fluorobenzamide]
pest or weed control at 50 µg/cm2 [1]: 50 to 100% | pest or weed control at 50 µg/cm2 [2]: 50 to 100%

O=C(Nc1ccc(F)c(NC(=O)C(F)F)c1F)c1cc(NC(=O)[C@H]2[C@H](c3ccc(F)c(C(F)(F)F)c3)C2(Cl)Cl)cc(F)c1Cl [F1289, 2-Chloro-5-((1R,3R)-2,2-dichloro-3-(4-fluoro-3-(trifluoromethyl)phenyl)-cyclopropane-1-carboxamido)-N-(3-(2,2-difluoroacetamido)-2,4-difluorophenyl)-3-fluorobenzamide]
pest or weed control at 50 µg/cm2 [1]: 50 to 100% | pest or weed control at 50 µg/cm2 [2]: 50 to 100%

O=C(Nc1ccc(F)c(NC(=O)C(F)(F)F)c1F)c1cc(NC(=O)[C@H]2[C@H](c3ccc(F)c(C(F)(F)F)c3)C2(Cl)Cl)cc(F)c1Cl [F1290, 2-Chloro-5-((1R,3R)-2,2-dichloro-3-(4-fluoro-3-(trifluoromethyl)phenyl)cyclopropane-1-carboxamido)-N-(2,4-difluoro-3-(2,2,2-trifluoroacetamido)phenyl)-3-fluorobenzamide]
pest or weed control at 50 µg/cm2 [1]: 50 to 100% | pest or weed control at 50 µg/cm2 [2]: 50 to 100%

O=C(Nc1ccc(F)c(NC(=O)C(F)(F)F)c1F)c1cc(NC(=O)[C@H]2[C@H](c3ccc(F)c(Cl)c3)C2(Cl)Cl)cc(F)c1Cl [F1291, 2-Chloro-5-((1R,3R)-2,2-dichloro-3-(3-chloro-4-fluorophenyl)cyclopropane-1-carboxamido)-N-(2,4-difluoro-3-(2,2,2-trifluoroacetamido)phenyl)-3-fluorobenzamide]
pest or weed control at 50 µg/cm2 [1]: 50 to 100% | pest or weed control at 50 µg/cm2 [2]: 50 to 100%

O=C(Nc1ccc(F)c(NCc2ccc([N+](=O)[O-])cc2)c1F)c1cc(NC(=O)[C@H]2[C@H](c3ccc(F)c(C(F)(F)F)c3)C2(Cl)Cl)ccc1Cl [F1296, 2-Chloro-5-((1R,3R)-2,2-dichloro-3-(4-fluoro-3-(trifluoromethyl)phenyl)cyclopropane-1-carboxamido)-N-(2,4-difluoro-3-((4-nitrobenzyl)amino)phenyl)benzamide]
pest or weed control at 50 µg/cm2 [1]: 50 to 100% | pest or weed control at 50 µg/cm2 [2]: 50 to 100%

Cc1ccc(C(=O)Nc2c(F)ccc(NC(=O)c3cc(NC(=O)[C@H]4[C@H](c5ccc(F)c(C(F)(F)F)c5)C4(Cl)Cl)ccc3Cl)c2F)s1 [F1302, N-(3-(2-Chloro-5-((1R,3R)-2,2-dichloro-3-(4-fluoro-3-(trifluoromethyl)phenyl)cyclopropane-1-carboxamido)benzamido)-2,6-difluorophenyl)-5-methylthiophene-2-carboxamide]
pest or weed control at 50 µg/cm2 [1]: 50 to 100% | pest or weed control at 50 µg/cm2 [2]: 50 to 100%

Nc1c(F)ccc(NC(=O)c2cc(NC(=O)[C@H]3[C@H](c4cc(Cl)cc(Cl)c4)C3(Cl)Cl)cc(F)c2Cl)c1F [F1324, N-(3-Amino-2,4-difluorophenyl)-2-chloro-5-((1R,3R)-2,2-dichloro-3-(3,5-dichlorophenyl)cyclopropane-1-carboxamido)-3-fluorobenzamide]
pest or weed control at 50 µg/cm2 [1]: 50 to 100% | pest or weed control at 50 µg/cm2 [2]: 50 to 100%

Nc1c(F)ccc(NC(=O)c2cc(NC(=O)[C@H]3[C@H](c4cc(Cl)c(Cl)c(Cl)c4)C3(Cl)Cl)cc(F)c2Cl)c1F [F1325, N-(3-Amino-2,4-difluorophenyl)-2-chloro-5-((1R,3R)-2,2-dichloro-3-(3,4,5-trichlorophenyl)cyclopropane-1-carboxamido)-3-fluorobenzamide]
pest or weed control at 50 µg/cm2 [1]: 50 to 100% | pest or weed control at 50 µg/cm2 [2]: 50 to 100%

O=C(Nc1ccc(F)c(NC(=O)C(F)(F)F)c1F)c1cc(NC(=O)[C@H]2[C@H](c3cc(Cl)cc(Cl)c3)C2(Cl)Cl)cc(F)c1Cl [F1330, 2-Chloro-5-((1R,3R)-2,2-dichloro-3-(3,5-dichlorophenyl)cyclopropane-1-carboxamido)-N-(2,4-difluoro-3-(2,2,2-trifluoroacetamido)phenyl)-3-fluorobenzamide]
pest or weed control at 50 µg/cm2 [1]: 50 to 100% | pest or weed control at 50 µg/cm2 [2]: 50 to 100%

O=C(Nc1ccc(F)c(NC(=O)C(F)F)c1F)c1cc(NC(=O)[C@H]2[C@H](c3cc(Cl)cc(Cl)c3)C2(Cl)Cl)cc(F)c1Cl [F1333, 2-Chloro-5-((1R,3R)-2,2-dichloro-3-(3,5-dichlorophenyl)cyclopropane-1-carboxamido)-N-(3-(2,2-difluoroacetamido)-2,4-difluorophenyl)-3-fluorobenzamide]
pest or weed control at 50 µg/cm2 [1]: 50 to 100% | pest or weed control at 50 µg/cm2 [2]: 50 to 100%

O=C(Nc1ccc(F)c(NC(=O)C(F)(F)F)c1F)c1cc(NC(=O)[C@H]2[C@H](c3cc(Cl)c(Cl)c(Cl)c3)C2(Cl)Cl)cc(F)c1Cl [F1334, 2-Chloro-5-((1R,3R)-2,2-dichloro-3-(3,4,5-trichlorophenyl)cyclopropane-1-carboxamido)-N-(2,4-difluoro-3-(2,2,2-trifluoroacetamido)phenyl)-3-fluorobenzamide]
pest or weed control at 50 µg/cm2 [1]: 50 to 100% | pest or weed control at 50 µg/cm2 [2]: 50 to 100%

O=C(Nc1ccc(F)c(NC(=O)C(F)F)c1F)c1cc(NC(=O)[C@H]2[C@H](c3cc(Cl)c(Cl)c(Cl)c3)C2(Cl)Cl)cc(F)c1Cl [F1335, 2-Chloro-5-((1R,3R)-2,2-dichloro-3-(3,4,5-trichlorophenyl)cyclopropane-1-carboxamido)-N-(3-(2,2-difluoroacetamido)-2,4-difluorophenyl)-3-fluorobenzamide]
pest or weed control at 50 µg/cm2 [1]: 50 to 100% | pest or weed control at 50 µg/cm2 [2]: 50 to 100%

Nc1ccc(F)c(NC(=O)c2cc(NC(=O)[C@H]3[C@H](c4cc(Cl)cc(Cl)c4)C3(Cl)Cl)cc(F)c2Cl)c1F [F1336, N-(3-Amino-2,6-difluorophenyl)-2-chloro-5-((1R,3R)-2,2-dichloro-3-(3,5-dichlorophenyl)cyclopropane-1-carboxamido)-3-fluorobenzamide]
pest or weed control at 50 µg/cm2 [1]: 50 to 100% | pest or weed control at 50 µg/cm2 [2]: 50 to 100%
